Test results: the RepoRT retention time repository

Experiment: Waters ACQUITY UPLC BEH C18, 100 × 2.1 mm, 1.7 µm, 40 °C, 0.3 to 0.4 mL/min, estimated dead time 0.63 min; A: water + 0.1% formic acid; B: methanol + 0.1% formic acid; gradient (min/%B) 0/0.5 0.1/0.5 10/80 10.1/99.5 12/99.5
Conditions: stereoisomer not certain

| Compound | LC retention time [min] |
| --- | --- |
| O=c1cc(-c2ccc(O)cc2)oc2cc(O)c(C3OCC(O)C(O)C3OC3OC(CO)C(O)C(O)C3O)c(O)c12 (stereo not given) | 4.21 |
| O=c1c2ccccc2nc2n1CCC2 | 3.94 |
| COc1cc2c(c(OC)c1OC)-c1c(cc(OC)c(OC)c1OC)CC(C)(O)C(C)C2 (stereo not given) | 7.59 |
| COc1cc(C2Oc3c(O)cc(C4Oc5cc(O)cc(O)c5C(=O)C4O)cc3C2CO)ccc1O (stereo not given) | 4.96 |
| COc1ccc2c3c([nH]c2c1)C1CC2C(=CCO)CN1C1C3OCC21 (stereo not given) | 3.6 |
| O=C1CC(c2ccccc2)Oc2ccccc21 (stereo not given) | 8.5 |
| COCC12CCC(OC)C34C5CC6(O)C(OC)C(O)C(OC(C)=O)(C5C6OC(=O)c5ccccc5)C(C(OC)C13)C4N(C)C2 (stereo not given) | 5.97 |
| CCC(C)C(N)C(=O)NC(C(=O)O)C(C)C (stereo not given) | 2.55 |
| CN1CCCC1c1cccnc1 (stereo not given) | 1.62 |
| O=c1c(-c2ccc(O)cc2)coc2c(C3OC(CO)C(O)C(O)C3O)c(O)ccc12 (stereo not given) | 3.27 |
| CC(CCC1(O)OC2CC3C4CC=C5CC(O)CCC5(C)C4CCC3(C)C2C1C)COC1OC(CO)C(O)C(O)C1O (stereo not given) | 6.58 |
| CC(NC(=O)Cc1c[nH]c2ccccc12)C(=O)O (stereo not given) | 4.55 |
| CN1CCc2cc3c(c4c2C1Cc1ccccc1-4)OCO3 (stereo not given) | 4.89 |
| COc1ccc2c(c1O)-c1c(OC)c(OC)cc3c1C(C2)N(C)CC3 (stereo not given) | 3.92 |
| CC1OC(OCC2OC(Oc3c(-c4ccc(O)c(O)c4)oc4cc(OC5OC(CO)C(O)C(O)C5O)cc(O)c4c3=O)C(O)C(O)C2O)C(O)C(O)C1O (stereo not given) | 3.39 |
| CCC1C(=O)OCc2c1cc1n(c2=O)Cc2cc3ccccc3nc2-1 (stereo not given) | 5.77 |
| CC1OC(OC2CC(C)(C)CC3C4=CCC5C6(C)CCC(OC7OC(C(=O)O)C(O)C(O)C7OC7OC(CO)C(O)C(O)C7OC7OCC(O)C(O)C7O)C(C)(CO)C6CCC5(C)C4(C)CCC23C)C(O)C(O)C1O (stereo not given) | 5.56 |
| C=CC1C(OC2OC(CO)C(O)C(O)C2O)OC=C(C(=O)OC)C1CC1NCCc2c1[nH]c1ccccc21 (stereo not given) | 4.36 |
| OCC1OC(Oc2cc3c(O)cc(O)cc3[o+]c2-c2cc(O)c(O)c(O)c2)C(O)C(O)C1O (stereo not given) | 2.61 |
| O=c1cc(-c2ccc(O)cc2)oc2c(C3OCC(O)C(O)C3O)c(O)c(C3OCC(O)C(O)C3O)c(O)c12 (stereo not given) | 3.89 |

| Compound | LC retention time [min] |
| --- | --- |
| CC1(C)CCC2(C(=O)O)C(O)CC3(C)C(=CCC4C5(C)CCC(OC6OC(CO)C(O)C(O)C6O)C(C)(C)C5CCC43C)C2C1 (stereo not given) | 7.33 |
| CC(C)=CCc1cc(C2CC(=O)c3c(O)cc(O)c(CC=C(C)C)c3O2)cc(O)c1O (stereo not given) | 9.09 |
| O=C(C=Cc1ccccc1)c1ccccc1 | 9.02 |
| COc1c(O)cc2oc(-c3ccc(O)c(O)c3)c(OC3OC(COC4OC(CO)C(O)C(O)C4O)C(O)C(O)C3O)c(=O)c2c1O (stereo not given) | 3.63 |
| O=C(O)C(Cc1ccc(O)cc1)NCC1(O)OC(CO)C(O)C1O (stereo not given) | 1.82 |
| COC(=O)C1CC23CCCN4CCC5(c6ccccc6NC15CC2)C43 (stereo not given) | 3.92 |
| NC(Cc1ccc(O)cc1)C(=O)O (stereo not given) | 1.79 |
| CC(CS)C(=O)N1CCCC1C(=O)O (stereo not given) | 4.05 |
| CC(C)CC(NC(=O)C(C)N)C(=O)O (stereo not given) | 2.36 |
| COc1cc(O)c(CC=C(C)C)c(O)c1C(=O)C=Cc1ccc(O)cc1 | 9.06 |
| CC1OC(OCC2OC(Oc3cc4c(O)cc(O)cc4[o+]c3-c3ccc(O)c(O)c3)C(O)C(O)C2O)C(O)C(O)C1O (stereo not given) | 2.94 |
| CC1=C(CCC(C)COC2OC(CO)C(O)C(O)C2OC2OC(C)C(O)C(O)C2O)OC2CC3C4CC=C5CC(O)CC(OC6OC(CO)C(O)C(O)C6O)C5(C)C4CCC3(C)C12 (stereo not given) | 5.2 |
| COc1cccc(-c2oc3cc(OC)ccc3c(=O)c2O)c1 | 6.75 |
| NC(CCC(=O)NC(CS)C(=O)NCC(=O)O)C(=O)O (stereo not given) | 1.52 |
| COc1cc(CC2COC(c3ccc(O)c(OC)c3)C2CO)ccc1O (stereo not given) | 4.96 |
| O=CC=Cc1ccc(O)cc1 | 4.53 |
| O=C(O)CC(=O)OCC1OC(Oc2c(-c3ccc(O)c(O)c3)oc3cc(OC4OC(CO)C(O)C(O)C4O)cc(O)c3c2=O)C(O)C(O)C1O (stereo not given) | 3.11 |
| CC1=C(O)C(=O)CC(OC2CC(C)(C)CC3C4=CCC5C6(C)CCC(OC7OC(C(=O)O)C(O)C(O)C7OC7OC(C(=O)O)C(O)C(O)C7O)C(C)(CO)C6CCC5(C)C4(C)CCC23C)O1 (stereo not given) | 7.96 |
| O=C(C=Cc1ccc(O)c(O)c1)OC1C(O)CC(O)(C(=O)O)CC1O (stereo not given) | 4.6 |
| COc1cc(C2c3cc4c(cc3C(O)C3COC(=O)C23)OCO4)cc(OC)c1OC (stereo not given) | 6.26 |

| Compound | LC retention time [min] |
| --- | --- |
| COC(=O)C1=C2Nc3ccccc3C23CCN2CCC1C(C(C)OC)C23 (stereo not given) | 4.55 |
| CCCCc1ccc(C(=O)O)nc1 | 2.79 |
| CC1CCC2C(C)C3C(CC4C5CC=C6CC(O)CCC6(C)C5CCC43C)N2C1 (stereo not given) | 5.99 |
| COc1cc2c3cc1Oc1c(OC)c(OC)cc4c1C(Cc1ccc(cc1)Oc1cc(ccc1O)CC3N(C)CC2)N(C)CC4 (stereo not given) | 3.76 |
| CC1OC(OC2C(OC3CCC4(C)C(CCC5(C)C4CC=C4C6CC(C)(C)CCC6(C(=O)O)CCC45C)C3(C)CO)OCC(O)C2O)C(O)C(O)C1O (stereo not given) | 7.96 |
| CC1=C(CCC(C)COC2OC(CO)C(O)C(O)C2O)OC2CC3C4CC=C5CC(O)CC(OC6OCC(O)C(O)C6OC6OC(C)C(O)C(O)C6O)C5(C)C4CCC3(C)C12 (stereo not given) | 5.59 |
| COc1cc2ccc(=O)oc2cc1O | 4.24 |
| COc1ccc(C2CC(=O)c3c(O)cc(OC4OC(CO)C(O)C(O)C4OC4OC(C)C(O)C(O)C4O)cc3O2)cc1 (stereo not given) | 5.42 |
| NC(CCCCNC(=O)C=Cc1ccc(O)c(O)c1)C(=O)O (stereo not given) | 2.61 |
| COc1c(O)cc(O)c2c(=O)cc(-c3ccccc3)oc12 | 7.27 |
| CC1CCC2(NC1)OC1CC3C4CC=C5CC(OC6OC(CO)C(O)C(OC7OC(CO)C(O)C(O)C7O)C6OC6OC(C)C(O)C(O)C6O)CCC5(C)C4CCC3(C)C1C2C (stereo not given) | 4.62 |
| CCC12CCCN3CCc4c(n(c5ccccc45)C(O)(C(=O)OC)C1)C32 (stereo not given) | 4.5 |
| CC(C)CC(N)C(=O)NC(C)C(=O)O (stereo not given) | 2.02 |
| O=C(O)C1OC(Oc2c(-c3ccc(O)cc3)oc3cc(O)cc(O)c3c2=O)C(O)C(O)C1O (stereo not given) | 4.34 |
| O=c1cc(-c2ccc(O)cc2)oc2cc(OC3OC(CO)C(O)C(O)C3OC3OCC(O)(CO)C3O)cc(O)c12 (stereo not given) | 4.71 |
| O=c1cc(-c2ccc(O)c(O)c2)oc2c(C3OC(CO)C(O)C(O)C3O)c(O)c(C3OC(CO)C(O)C(O)C3O)c(O)c12 (stereo not given) | 3.1 |
| CC1CCC2C(C)C3C(CC4C5C(=O)C=C6CC(OC7OC(CO)C(OC8OC(C)C(O)C(O)C8O)C(O)C7OC7OC(C)C(O)C(O)C7O)CCC6(C)C5CCC43C)N2C1 (stereo not given) | 4.52 |
| O=c1[nH]c(=O)c2ncn(C3OC(CO)C(O)C3O)c2[nH]1 (stereo not given) | 2.07 |
| COc1c(C=CC(=O)c2ccc(O)c(O)c2)ccc(O)c1CC=C(C)C | 7.49 |
| CC(C)CC(N)C(=O)N1CCCC1C(=O)O (stereo not given) | 2.72 |
